US6569834B1, “Elucidation and synthesis of antineoplastic tetrapeptide w-aminoalkyl-amides” (priority 1992, dated 2003)
Values after ≈ are worked out from the molar mass of the structure shown.

What was measured:
Format in all cases: cell-based
[1] = system: human cancer cell line; assay: Human cancer cell line activity compared to dolastatin 10
[2] = system: SF-295; assay: Human cancer cell growth inhibition, CNS SF-295
Source text: (§1) Only two hundred years ago, many diseases ravaged humankind. Many of these diseases have been controlled or eradicated. In the development of the means to treat or control these diseases, work with the appropriate common experimental animals was of critical importance. With the various types of cancers, and with the HIV virus, such work is presently ongoing. The research for the treatment of various types of cancer is coordinated by the National Cancer Institute (NCI). NCI, as a government entity, has been charged with assisting anti-cancer research. To establish whether a substance has anti cancer activity, NCI has established a protocol. This protocol, which involves testing a substance against a cell line panel containing 60 human tumor cell lines, has been verified, and is accepted in scientific circles. This protocol, and the established statistical means of evaluating the results obtained therefrom have been amply described in the literature. See e.g. Principles & Practice of Oncology PPO Updates, Volume 3, Number 10, October 1989, by Michael R. Boyd, M. D., Ph.D., for a description of the protocol. The statistical analysis is explained in “Display and Analysis of Patterns of Differential Activity of Drugs Against Human Tumor Cell Lines: Development of Mean Graph and COMPARE Algorithm” Journal of the National Cancer Institute Reports Vol. 81, No. 14, Pg. 1088, July 14, 1989, by K. D. Paull et al. Both articles are incorporated herein by this reference as if fully set forth.
(§2) The extraordinary inhibition of cell growth shown by the tetrapeptide w-aminoalkylamides 6a-d against six major types of human cancer and against the murine P388 lymphocytic leukemia cell line has been presented in Table I.

[3] = system: KM20L2; assay: Human cancer cell growth inhibition, colon KM20L2
Source text: as §1, §2

[4] = system: SK-MEL-3; assay: Human cancer cell growth inhibition, melanoma SK-MEL-3
Source text: as §1, §2

[5] = system: OVCAR-3; assay: Human cancer cell growth inhibition, ovarian OVCAR-3
Source text: as §1, §2

[6] = system: P-388; assay: Cancer cell growth inhibition, murine P388 lymphocytic leukemia cell line; design: unit not given here; settings: Mouse leukemia cell P-388
Source text: as §2

[7] = system: NCI-460; assay: Human cancer cell growth inhibition, Lung-NSC NCI-460
Source text: as §1, §2

[8] = system: A498; assay: Human cancer cell growth inhibition, renal A498
Source text: as §1, §2

Molecule	human cancer cell line activity as compared to dolastatin 10 [1]	GI-50 [2] [µg/mL]	TGI [2] [ng/mL]	GI-50 [3] [µg/mL]	TGI [3] [ng/mL]	GI-50 [4] [µg/mL]	TGI [4] [ng/mL]	GI-50 [5] [µg/mL]	TGI [5] [ng/mL]	Cancer cell growth inhibitory activity [6]	GI-50 [7] [µg/mL]	TGI [7] [ng/mL]	GI-50 [8] [µg/mL]	TGI [8] [ng/mL]
R-Doe-isodolastatin 10	did not show any significant difference	–	–	–	–	–	–	–	–	–	–	–	–	–
CC[C@H](C)[C@@H]([C@@H](CC(=O)N1CCC[C@H]1[C@H](OC)[C@@H](C)C(=O)NCCc1ccccn1)OC)N(C)C(=O)[C@@H](NC(=O)[C@H](C(C)C)N(C)C)C(C)C [Peptide 6a, [2S-[1[1R*(R*),2S*],2R*[1S*,2S*]]]-N,N-dimethyl-L-valyl-N-[2-methoxy-4-[2-[1-methoxy-2-methyl-3-oxo-3-[[2-(2-pyridyl)ethyl]amino]propyl]-1-pyrrolidinyl-1-(methylpropyl)-4-oxobutyl]-N-methyl-L-valineamide]	–	0.00035	<10	0.000062	1.1 (≈ 0.00156 µM)	0.000065	0.77 (≈ 0.0011 µM)	0.000039	0.21 (≈ 0.000299 µM)	0.000713	0.00024	0.8 (≈ 0.00114 µM)	0.00043	<10
CC[C@H](C)[C@@H]([C@@H](CC(=O)N1CCC[C@H]1[C@H](OC)[C@@H](C)C(=O)NCCCN(C)C)OC)N(C)C(=O)[C@@H](NC(=O)[C@H](C(C)C)N(C)C)C(C)C [Peptide 6d, [2S-[1[1R*(R*),2S*],2R*[1S*,2S*]]]-N,N-dimethyl-L-valyl-N-[2-methoxy-4-[2-[1-methoxy-2-methyl-3-oxo-3-[[3-dimethylamino-propyl]amino]propyl]-1-pyrrolidinyl-1-(methylpropyl)-4-oxobutyl]-N-methyl-L-valineamide]	–	<0.01	<10	<0.01	<10	<0.01	<10	<0.01	<10	0.881	0.0072	<10	<0.01	<10
CC[C@H](C)[C@@H]([C@@H](CC(=O)N1CCC[C@H]1[C@H](OC)[C@@H](C)C(=O)NCCN(C)C)OC)N(C)C(=O)[C@@H](NC(=O)[C@H](C(C)C)N(C)C)C(C)C [Peptide 6c, [2S-[1[1R*(R*),2S*],2R*[1S*,2S*]]]-N,N-dimethyl-L-valyl-N-[2-methoxy-4-[2-[1-methoxy-2-methyl-3-oxo-3-[[2-dimethylamino-ethyl]amino]propyl]-1-pyrrolidinyl-1-(methylpropyl)-4-oxobutyl]-N-methyl-L-valineamide]	–	0.0033	<10	<0.01	<10	<0.01	<10	0.0028	8.6 (≈ 0.0129 µM)	<0.1	0.0051	<10	0.0025	5.6 (≈ 0.00837 µM)
CC[C@H](C)[C@@H]([C@@H](CC(=O)N1CCC[C@H]1[C@H](OC)[C@@H](C)C(=O)NCCN1CCOCC1)OC)N(C)C(=O)[C@@H](NC(=O)[C@H](C(C)C)N(C)C)C(C)C [Peptide 6b, [2S-[1[1R*(R*),2S*],2R*[1S*,2S*]]]-N,N-dimethyl-L-valyl-N-[2-methoxy-4-[2-[1-methoxy-2-methyl-3-oxo-3-[[2-(4-morpholino)ethyl]amino]propyl]-1-pyrrolidinyl-1-(methylpropyl)-4-oxobutyl]-N-methyl-L-valineamide]	–	<0.0001	<0.1	<0.0001	<0.1	<0.0001	<0.1	<0.0001	<0.1	0.0736	<0.0001	<0.1	<0.0001	<0.1
